Values after ≈ are worked out from the molar mass of the structure shown.
system: various strains of bacteria; test: Antimicrobial potency: bacterial growth inhibition by OD600 (Antibacterial assay 1, MITC95); type: cell-based, A. baumannii; conditions: Acinetobacter baumannii, 20 h, lowest concentration giving >95% growth inhibition, CAMHB, 18-22 h
Experimental: The concentrations of compounds required to inhibit the growth of various strains of bacteria were determined in an assay that assessed bacterial growth by measuring optical density at 600 nm (OD600). Test articles were dissolved in 100% DMSO and serially diluted two-fold from their maximal concentration in 100% DMSO. Forty-nine μl of bacterial inoculum (at approx. 2×10^5 cfu/mL in CAMHB) were put into wells of an assay plate. One μl of compound or DMSO was transferred from the source plate to the assay plate. The completed assay plates were then incubated at 35+2degC for 18-22 h. Bacterial growth was measured by reading OD600 on a spectrophotometer. Data analysis calculates the lowest concentration of compound which results in >95% growth inhibition (minimum inhibitory threshold concentration 95%, MITC95).

SMILES | MIC
O=C(O)c1cc(OC2CN(Cc3ccc(NS(=O)(=O)c4cnn(-c5ccc(Cl)cc5)c4)c(C(=O)O)c3)C2)ccc1NS(=O)(=O)CCc1ccc(F)cc1 [Compound 82] | 0.0346 µM (≈ 0.0271 µg/mL)
O=C(O)c1cc(OC2CN(Cc3ccc(NS(=O)(=O)c4ccc(-c5ccc(F)cc5)cc4)c(C(=O)O)c3)C2)ccc1NS(=O)(=O)CCc1ccc(F)cc1 [Compound 83] | 0.0346 µM (≈ 0.0269 µg/mL)
O=C(O)c1cc(OC2CN(Cc3ccc(NS(=O)(=O)N4CCOC(c5ccc(F)cc5)C4)c(C(=O)O)c3)C2)ccc1NS(=O)(=O)CCc1ccc(F)cc1 (stereo not shown) [Compound 84] | 0.0691 µM (≈ 0.0544 µg/mL)
O=C(O)c1cc(OC2CN(Cc3ccc(NS(=O)(=O)c4cnc(-c5ccc(Cl)cc5)s4)c(C(=O)O)c3)C2)ccc1NS(=O)(=O)CCc1ccc(F)cc1 [Compound 85] | 0.0173 µM (≈ 0.0139 µg/mL)
O=C(O)c1cc(OC2CN(Cc3ccc(NS(=O)(=O)c4ccc(-c5ccccc5)s4)c(C(=O)O)c3)C2)ccc1NS(=O)(=O)CCc1ccc(F)cc1 [Compound 86] | 0.0245 µM (≈ 0.0188 µg/mL)
O=C(O)c1cc(OC[C@H]2C[C@@H](NCc3ccc(NS(=O)(=O)N4CCOC(c5ccc(F)cc5)C4)c(C(=O)O)c3)C2)ccc1NS(=O)(=O)c1cnn(-c2ccc(F)cc2)c1 (stereo partly shown) [Compound 88] | 0.0122 µM (≈ 0.0104 µg/mL)
O=C(O)c1cc(OC[C@H]2C[C@@H](NCc3ccc(NS(=O)(=O)N4CCOC(c5ccc(F)cc5)C4)c(C(=O)O)c3)C2)ccc1NS(=O)(=O)c1cnn(-c2ccc(Cl)cc2)c1 (stereo partly shown) [Compound 89] | < 0.00306 µM
O=C(O)c1cc(CN[C@H]2C[C@@H](COc3ccc(NS(=O)(=O)c4cnc(-c5ccc(Cl)cc5)s4)c(C(=O)O)c3)C2)ccc1NS(=O)(=O)CCc1ccc(F)cc1 [Compound 90] | 0.00865 µM (≈ 0.00717 µg/mL)
Cn1nc(-c2ccc(F)cc2)cc1S(=O)(=O)Nc1ccc(CN[C@H]2C[C@@H](COc3ccc(NS(=O)(=O)c4cnn(-c5ccc(Cl)cc5)c4)c(C(=O)O)c3)C2)cc1C(=O)O [Compound 91] | 0.0173 µM (≈ 0.015 µg/mL)
O=C(O)c1cc(OC[C@H]2C[C@@H](NCc3ccc(NS(=O)(=O)N4CCOC(c5ccc(F)cc5)C4)c(C(=O)O)c3)C2)ccc1NS(=O)(=O)c1cnc(-c2ccc(F)cc2)s1 (stereo partly shown) [Compound 92] | 0.00611 µM (≈ 0.00532 µg/mL)
O=C(O)c1cc(CN[C@H]2C[C@@H](COc3ccc(NS(=O)(=O)c4cnc(-c5ccc(Cl)cc5)s4)c(C(=O)O)c3)C2)ccc1NS(=O)(=O)CCc1ccc(Cl)cc1 [Compound 93] | 0.00611 µM (≈ 0.00517 µg/mL)
O=C(O)c1cc(CN[C@H]2C[C@@H](COc3ccc(NS(=O)(=O)c4ccc(-c5ccc(Cl)cc5)s4)c(C(=O)O)c3)C2)ccc1NS(=O)(=O)CCc1ccc(Cl)cc1 [Compound 94] | 0.0086 µM (≈ 0.00727 µg/mL)
O=C(O)c1cc(CN[C@H]2C[C@@H](COc3ccc(NS(=O)(=O)N4CCOC(c5ccc(F)cc5)C4)c(C(=O)O)c3)C2)ccc1NS(=O)(=O)N1CCOC(c2ccc(F)cc2)C1 (stereo partly shown) [Compound 95] | 0.0122 µM (≈ 0.0106 µg/mL)
O=C(O)c1cc(OC[C@H]2C[C@@H](NCc3ccc(NS(=O)(=O)N4CC(Oc5ccc(F)cc5)C4)c(C(=O)O)c3)C2)ccc1NS(=O)(=O)c1cnc(-c2ccc(Cl)cc2)s1 [Compound 96] | 0.0122 µM (≈ 0.0106 µg/mL)
O=C(O)c1cc(CN2CC(Oc3ccc(NS(=O)(=O)c4ccc(-c5ccc(Cl)cc5)cc4)c(C(=O)O)c3)C2)ccc1NS(=O)(=O)c1ccc(-c2ccc(Cl)cc2)cc1 [Compound 97, 5-((1-(3-carboxy-4-((4′-chloro-(1,l′-biphenyl))-4-sulfonamido)benzyl)azetidin-3-yl)oxy)-2-((4′-chloro-(1,l′-biphenyl))-4-sulfonamido)benzoic acid] | 0.0978 µM (≈ 0.084 µg/mL)
O=C(O)c1cc(CN2CC(Oc3ccc(NS(=O)(=O)c4ccc(-c5ccc(F)cc5)cc4)c(C(=O)O)c3)C2)ccc1NS(=O)(=O)c1ccc(-c2ccc(F)cc2)cc1 [Compound 98] | 0.0692 µM (≈ 0.0572 µg/mL)
O=C(O)c1cc(CN2CC(Oc3ccc(NS(=O)(=O)c4ccc(-c5ccc(F)cc5)cc4)c(C(=O)O)c3)C2)ccc1NS(=O)(=O)CCc1ccc(Cl)cc1 [Compound 99, 5-((1-(3-carboxy-4-((2-(4-chlorophenyl)ethyl)sulfonamido)benzyl)azetidin-3-yl)oxy)-2-((4′-fluoro-[1, l′-biphenyl])-4-sulfonamido)benzoic acid] | 0.0245 µM (≈ 0.0195 µg/mL)

SMILES | MIC
O=C(O)c1cc(CN2CC(Oc3ccc(NS(=O)(=O)c4ccc(-c5ccc(F)cc5)cc4)c(C(=O)O)c3)C2)ccc1NS(=O)(=O)c1cnn(-c2ccc(F)cc2)c1 [Compound 100] | 0.0489 µM (≈ 0.0399 µg/mL)
O=C(O)c1cc(CN2CC(Oc3ccc(NS(=O)(=O)c4ccc(-c5cccc(Cl)c5)cc4)c(C(=O)O)c3)C2)ccc1NS(=O)(=O)CCc1ccc(Cl)cc1 [Compound 101] | 0.0245 µM (≈ 0.0199 µg/mL)
O=C(O)c1cc(CN2CC(Oc3ccc(NS(=O)(=O)c4ccc(-c5ccc(F)cc5)cc4)c(C(=O)O)c3)C2)ccc1NS(=O)(=O)CCc1ccc(F)cc1 [Compound 102] | 0.0489 µM (≈ 0.038 µg/mL)
O=C(O)c1cc(CN2CC(Oc3ccc(NS(=O)(=O)c4ccc(-c5ccc(Cl)cc5)cc4)c(C(=O)O)c3)C2)ccc1NS(=O)(=O)c1ccc(OC(F)F)cc1 [Compound 103] | 0.0245 µM (≈ 0.0199 µg/mL)
O=C(O)c1cc(CN2CC(Oc3ccc(NS(=O)(=O)c4ccc(-c5ccc(Cl)cc5)cc4)c(C(=O)O)c3)C2)ccc1NS(=O)(=O)c1cnn(-c2ccc(F)cc2)c1 [Compound 104] | 0.0346 µM (≈ 0.0288 µg/mL)
O=C(O)c1cc(CN2CC(Oc3ccc(NS(=O)(=O)c4ccc(-c5ccc(Cl)cc5)cc4)c(C(=O)O)c3)C2)ccc1NS(=O)(=O)c1ccc(Oc2ccccc2)nc1 [Compound 105] | 0.0245 µM (≈ 0.0206 µg/mL)
Cn1nc(-c2ccccc2)cc1S(=O)(=O)Nc1ccc(CN2CC(Oc3ccc(NS(=O)(=O)c4ccc(-c5ccc(Cl)cc5)cc4)c(C(=O)O)c3)C2)cc1C(=O)O [Compound 106] | 0.0489 µM (≈ 0.0405 µg/mL)
O=C(O)c1cc(OC2CN(Cc3ccc(NS(=O)(=O)c4ccc(-c5ccc(Cl)cc5)s4)c(C(=O)O)c3)C2)ccc1NS(=O)(=O)c1ccc(-c2ccc(F)cc2)cc1 [Compound 107] | 0.0489 µM (≈ 0.0415 µg/mL)
CCCCc1ccc(S(=O)(=O)Nc2ccc(CN3CC(Oc4ccc(NS(=O)(=O)c5ccc(-c6ccc(F)cc6)cc5)c(C(=O)O)c4)C3)cc2C(=O)O)cc1 [Compound 108] | 0.0489 µM (≈ 0.0385 µg/mL)
O=C(O)c1cc(OC2CN(Cc3ccc(NS(=O)(=O)c4cnn(-c5ccc(F)cc5)c4)c(-c4nn[nH]n4)c3)C2)ccc1NS(=O)(=O)c1cnn(-c2ccc(F)cc2)c1 [Compound 114, 2-((1-(4-fluorophenyl)-1H-pyrazole)-4-sulfonamido)-5-((1-(4-((1-(4-fluorophenyl)-1H-pyrazole)-4-sulfonamido)-3-(2H-tetrazol-5-yl)benzyl)azetidin-3-yl)oxy)benzoic acid] | 0.246 µM (≈ 0.204 µg/mL)
O=C(O)c1cc(CN2CC(Oc3ccc(NS(=O)(=O)c4cnn(-c5ccc(F)cc5)c4)c(C(=O)O)c3)C2)ccc1NS(=O)(=O)c1cnn(-c2ccc(F)cc2)c1 [Compound 115, 5-((1-(3-carboxy-4-(1-(4-fluorophenyl)-1H-pyrazole-4-sulfonamido)benzyl)azetidin-3-yl)oxy)-2-(1-(4-fluorophenyl)-1H-pyrazole-4-sulfonamido)benzoic acid] | 0.277 µM (≈ 0.223 µg/mL)
O=C(O)c1cc(CN2CC(Oc3ccc(NS(=O)(=O)c4coc(-c5ccc(F)cc5)n4)c(C(=O)O)c3)C2)ccc1NS(=O)(=O)c1coc(-c2ccc(F)cc2)n1 [Compound 116] | 0.0978 µM (≈ 0.079 µg/mL)
O=C(O)c1cc(CN2CC(Oc3ccc(NS(=O)(=O)c4cnn(-c5ccc(Cl)cc5)c4)c(C(=O)O)c3)C2)ccc1NS(=O)(=O)c1cnn(-c2ccc(Cl)cc2)c1 [Compound 117] | 0.0489 µM (≈ 0.041 µg/mL)
O=C(O)c1cc(CN2CC(Oc3ccc(NS(=O)(=O)c4cnn(-c5ccc(F)cc5)n4)c(C(=O)O)c3)C2)ccc1NS(=O)(=O)c1cnn(-c2ccc(F)cc2)n1 [Compound 118] | 0.0245 µM (≈ 0.0198 µg/mL)
O=C(O)c1cc(CN2CC(Oc3ccc(NS(=O)(=O)c4cnc(-c5ccc(F)cc5)o4)c(C(=O)O)c3)C2)ccc1NS(=O)(=O)c1cnc(-c2ccc(F)cc2)o1 [Compound 120] | 0.0489 µM (≈ 0.0395 µg/mL)
O=C(O)c1cc(CN2CC(Oc3ccc(NS(=O)(=O)c4cnn(-c5ccc(Cl)cn5)c4)c(C(=O)O)c3)C2)ccc1NS(=O)(=O)c1cnn(-c2ccc(Cl)cn2)c1 [Compound 121] | 0.277 µM (≈ 0.233 µg/mL)

same assay, conditions: lowest concentration giving >95% growth inhibition, CAMHB, 18-22 h

SMILES | MIC
O=C(O)c1cc(CNC2CC(COc3ccc(NS(=O)(=O)c4cnn(-c5ccc(Cl)cc5)c4)c(C(=O)O)c3)C2)ccc1NS(=O)(=O)c1cnn(-c2ccc(Cl)cc2)c1 (stereo not shown) [Compound 87, 5-(((1s, 3s)-3-((3-carboxy-4-((1-(4-chlorophenyl)-1H-pyrazole)-4-sulfonamido)benzyl)amino)cyclobutyl)methoxy)-2-((1-(4-chlorophenyl)-1H-pyrazole)-4-sulfonamido)benzoic acid] | 0.0245 µM (≈ 0.0212 µg/mL)

Reference: US20250326713A1, “INHIBITORS OF MsbA AS ANTIBIOTICS, PHARMACEUTICAL COMPOSITIONS, AND USES THEREOF” (priority 2022, published 2025)
